Laboratory results as given in patent US6465476B1, “Immuno-modulator exhibiting antimicrobial and anti-mycrobacterial activities, method for producing the same and pharmaceutical preparation” (priority 1997, dated 2002).
Where two headings read alike, the source gives them in different places.

Legend:
[1] = test system: antibody-forming cells (AFC) in the spleen; experiment: Humoral immunity, localized-in-gel hemolysis, AFC accumulation in spleen of immunized mice; type: in vivo, hybrid mice F1 (CBA/C57BL6)
Description: The influence on humoral immunity was studied using the method of localized-in-gel hemolysis. […] On the 5th day the number of antibody-forming cells (AFC) in the spleen of the mice was calculated and the immune response stimulation index was determined as the ratio of AFC number in the test group to the AFC number in the control group. The respective data are represented in Table 2.

[2] = test system: macrophages; experiment: Phagocytic activity of macrophages (clearance from blood); type: in vivo, mice; settings: 500 μg per mouse per os
Excerpt: The influence of the preparations in question on the phagocytic activity of macrophages was studid from clearence of the carcass in blood taken from the retroorbital sinus of mice that received the preparations per os. The results were estimated on the phagocytic index α (see Table 4).

[3] = test system: tuberculosis mycobacteria H37Rv (USSR H37Rv); type: in vivo, tuberculosis mycobacteria; mice of the CBA line; settings: for Damage index / Life duration / Weight of the lung: USSR H37Rv
[4] = test system: human mononucleator cells (T-lymphocytes); experiment: Proliferation of T-lymphocytes in cell culture in vitro (3H-thymidine); type: cell-based
Description: The influence of the test compound on the proliferation of T-lymphocytes was studied on a model in vitro. To this end human mononucleator cells were preliminarily incubated during three hours in the presence of different concentrations of each test substance. Each test substance was studied over a wide range of its concentrations, that is from […]. As a negative control there was added a physiological 0.9 percent solution of NaCl. The results of the influence of novel compoubds on the intensity of proliferation of human lymphocytes in the cell culture in vitro are represented in Table 3.

[5] = test system: agent of leprosy; experiment: Example 1, patient X, border-line tuberculoid leprosy; type: in vivo, human; parameters: histological index: scale not given here; Leucocytes / T-lymphocytes: unit not given here
Excerpt: The patient X was admitted to a clinic with a diagnosis “border-line tuberculoid leprosy”. They had been considering themself ill for two years. They supposed that they had been infected in Africa where they had worked 8 years ago and used to receive vegetables from lepers. On the skin of the back, on the skin of the lateral abdiminal surfaces, on the left hip and shin, the left temple area of the head there were yellowish-reddish papules with a rust-coloured hue and sized 1.5 times 2 cm to 4 times 6 cm with no sensitivity in ther center. Disorder of sensitivity was noted along the length of peroneal and elbow nerves. The agent of leprosy was neither detected in the scrape from the nasal mucosa nor in the lymph on the bacterioscopic investigation. […] In the surface layers of derma there were multiple infiltrates and in the deeper layers of the skin there were focal and strand infiltrates. The histological index was equal to 1.1. The patient was prescribed a treatment in the form of isophonum to be taken internally 0.2 g each time twice a day. After 3.5 months all the elements (plaques) on the skin completely resolved and were replaced by hyperpigmented spots which after 4 months completely gained the colour of a normal skin. […] The patient was not hospitalyzed and received home treatment without interrupting their work. […] The histological index equaled 0. When histological investigation was repeated after 7 months with the purpose of transfering the patient under dispensary observation, the agent of leprosy was not detected either, in the surface layer of the derma were noted some small infiltrates out of lymphocytes with epithelioid cells in the form of accumulations.
In deeper layers of the skin there were small infiltrates around the blood vessels. It was decided to prolong the treatment of the patient for 6 months by administering isophonum internally in combination with diuciphonum.

[6] = test system: white unbred mice; experiment: Toxicity on white unbred mice by Litchfild-Wilkokson's procedure; type: in vivo; settings: white unbred mice 18 to 20 g, sharp experiment
[7] = test system: agent of leprosy (mycobacteria of leprosy)
[8] = test system: Tubazide-resistent H37Rv; type: in vivo, tuberculosis mycobacteria; mice of the CBA line; settings: for Damage index / Life duration / Weight of the lung: Tubazide-resistent H37Rv
[9] = leprosy patients, after one month, 0.6 g daily
[10] = leprosy patients, after three months, 0.6 g daily
[11] = leprosy patients, before treatment

**Q.** Which results are given for `Cc1[nH]c(=O)[nH]c(=O)c1S(=O)(=O)NNC(=O)c1ccncc1.O` [Isophonum, N-(6-methyl-2,4-dioxo-1,2,3,4-tetrahydro-5-pyrimidinsulfon)-N′-isonicotinoylhydrazide hydrate]?
**A.** AFC-number in the spleen ([1]; 500 μg per mouse per os in starch suspension, 5th day after immunization): 2800 ± 200; Immune response stimulation index ([1]; 500 μg per mouse per os, ratio of AFC test group to control group): 5.6; Phagocytic index [2]: 6.55 ± 0.06; stimulation of the phagocytic activity of macrophages [2]: 56%; Phagocytic index, percent of controls ([2]; controls 100%): (156%); Damage index ([3]; 100 μg per mouse): 1.91 ± 0.18; Life duration ([3]; 100 μg per mouse): 34.6 ± 4.8; Weight of the lung ([3]; 100 μg per mouse): 507.0 ± 48.4; Damage index ([3]; 200 μg per mouse): 1.81 ± 0.21; Life duration ([3]; 200 μg per mouse): 35.7 ± 5.2; Weight of the lung ([3]; 200 μg per mouse): 495.4 ± 56.1; antituberculous action ([3]; mouse, in vivo): pronounced antituberculous action; Intensity of involvement of 3H-thymidine in DNA of cultivated cells, PHA-activated ([4]; 0.01 μg/ml): 19995 impulse per minute; Intensity of involvement of 3H-thymidine in DNA of cultivated cells, Spontaneous ([4]; 0.01 μg/ml): 901 impulse per minute; Intensity of involvement of 3H-thymidine in DNA of cultivated cells, PHA-activated ([4]; 0.03 μg/ml): 24736 impulse per minute; Intensity of involvement of 3H-thymidine in DNA of cultivated cells, Spontaneous ([4]; 0.03 μg/ml): 1152 impulse per minute; Intensity of involvement of 3H-thymidine in DNA of cultivated cells, PHA-activated ([4]; 0.1 μg/ml): 37890 impulse per minute; Intensity of involvement of 3H-thymidine in DNA of cultivated cells, Spontaneous ([4]; 0.1 μg/ml): 1818 impulse per minute; Intensity of involvement of 3H-thymidine in DNA of cultivated cells, PHA-activated ([4]; 1 μg/ml): 25455 impulse per minute; Intensity of involvement of 3H-thymidine in DNA of cultivated cells, Spontaneous ([4]; 1 μg/ml): 1272 impulse per minute; Intensity of involvement of 3H-thymidine in DNA of cultivated cells, PHA-activated ([4]; 5 μg/ml): 20120 impulse per minute; Intensity of involvement of 3H-thymidine in DNA of cultivated cells, Spontaneous ([4]; 5 μg/ml): 871 impulse per minute; optimal concentration ([4]; proliferation of T-cells): 0.1 µg/mL; mitogenetic activity ([4]; spontaneous proliferation): possesses the proper mitogenetic activitiy of its own; time after which all the elements (plaques) on the skin completely resolved ([5]; 0.2 g twice a day): 3.5 months; histological index ([5]; 3 months later, 0.2 g twice a day): 0; histological index ([5]; before treatment): 1.1; B-lymphocytes, % ([5]; day 0 (before treatment)): 12%; Leucocytes ([5]; day 0 (before treatment)): 6.1; Lymphocytes, % ([5]; day 0 (before treatment)): 18%; T-helpers, % ([5]; day 0 (before treatment)): 50%; T-lymphocytes ([5]; day 0 (before treatment)): 57; T-suppressors ([5]; day 0 (before treatment)): 4; B-lymphocytes, % ([5]; day 180, 0.2 g twice a day): 17%; Leucocytes ([5]; day 180, 0.2 g twice a day): 6.8; Lymphocytes, % ([5]; day 180, 0.2 g twice a day): 30%; T-helpers, % ([5]; day 180, 0.2 g twice a day): 63%; T-lymphocytes ([5]; day 180, 0.2 g twice a day): 80; T-suppressors ([5]; day 180, 0.2 g twice a day): 27; Phagocytosis ([5]; first column (no day head; presumably day 0)): 30; Phagocytosis ([5]; second column (no day head; presumably day 180)): 5; toxicity [6]: exceed 7000 mg/kg; shortening of the length of stationary treatment of the leprous patients ([7]; human, in vivo): two-fold; tolerability, side effects ([7]; human, in vivo): well tolerable, has no side effects; time after which the agent of leprosy disappeared in scrapes of nasal mucosa ([7]; leprosy patients, 0.6 g daily): 3 months; B-lymphocytes [7, 9]: 10.0 ± 0.2; T-helpers [7, 9]: 28.2 ± 0.3; T-lymphocytes [7, 9]: 43.4 ± 0.7; T-suppressors [7, 9]: 20.0 ± 0.4; Th/Ts (immunoregulatory index) [7, 9]: 1.4; B-lymphocytes [7, 10]: 11.4 ± 0.4; T-helpers [7, 10]: 48.4 ± 1.2; T-lymphocytes [7, 10]: 60.2 ± 0.9; T-suppressors [7, 10]: 21.2 ± 0.4; Th/Ts (immunoregulatory index) [7, 10]: 2.3 ± 0.1; B-lymphocytes [7, 11]: 8.4 ± 0.2; T-helpers [7, 11]: 20.2 ± 0.2; T-lymphocytes [7, 11]: 28.6 ± 0.1; T-suppressors [7, 11]: 20.4 ± 0.3; Th/Ts (immunoregulatory index) [7, 11]: 1.0; Damage index ([8]; 100 μg per mouse): 1.91 ± 0.18; Life duration ([8]; 100 μg per mouse): 35.2 ± 3.4; Weight of the lung ([8]; 100 μg per mouse): 493.4 ± 65.1; Damage index ([8]; 200 μg per mouse): 1.72 ± 0.24; Life duration ([8]; 200 μg per mouse): 37.1 ± 6.2; Weight of the lung ([8]; 200 μg per mouse): 478.2 ± 60.8; antituberculous action ([8]; mycobacteria resistent to tubazide and streptomycin): pronounced antituberculous action
